Measurements published in ChEMBL document CHEMBL4602734, “Hybrid Screening Approach for Very Small Fragments: X-ray and Computational Screening on FKBP51” (J Med Chem, 2020).
Activity calls are given as the source filed them. The rule behind the calls is not given here.

Tests used:
[1] = target: T1, Peptidyl-prolyl cis-trans isomerase FKBP5 (Homo sapiens) (UniProt Q13451); assay: Binding affinity to 15N-labeled FKBP51 (1 to 140 residues) (unknown origin) expressed in Escherichia coli OD2N assessed as induction of chemical shift perturbations by two-dimensional 1H/15N HSQC NMR spectroscopy
T1 sequence (whole entry): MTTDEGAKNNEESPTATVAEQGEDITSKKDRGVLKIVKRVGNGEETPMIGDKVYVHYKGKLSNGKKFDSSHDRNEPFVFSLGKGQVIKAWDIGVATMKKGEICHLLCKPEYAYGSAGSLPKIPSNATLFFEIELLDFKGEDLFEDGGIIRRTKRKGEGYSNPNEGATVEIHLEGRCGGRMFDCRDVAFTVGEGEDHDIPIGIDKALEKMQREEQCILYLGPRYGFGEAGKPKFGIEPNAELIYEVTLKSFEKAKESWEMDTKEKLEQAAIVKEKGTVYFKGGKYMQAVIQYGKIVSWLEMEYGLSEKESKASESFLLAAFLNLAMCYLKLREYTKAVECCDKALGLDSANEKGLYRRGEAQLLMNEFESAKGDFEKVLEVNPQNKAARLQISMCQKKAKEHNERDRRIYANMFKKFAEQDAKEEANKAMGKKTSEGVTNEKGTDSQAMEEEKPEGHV

[2] = target: T2, Peptidyl-prolyl cis-trans isomerase FKBP5 (Homo sapiens, UniProt Q13451); assay: Binding affinity to 15N-labeled FKBP51 (1 to 140 residues) (unknown origin) expressed in Escherichia coli OD2N by two-dimensional 1H/15N HSQC NMR spectroscopy
T2 sequence (Q13451 whole entry): T1 sequence (whole entry)

[3] = target: T1, Peptidyl-prolyl cis-trans isomerase FKBP5 (Homo sapiens); assay: Binding affinity to 15N-labeled FKBP51 (1 to 140 residues) (unknown origin) expressed in Escherichia coli OD2N assessed as induction of chemical shift perturbations at Ile87 residues by two-dimensional 1H/15N HSQC NMR spectroscopy
[4] = target: T1, Peptidyl-prolyl cis-trans isomerase FKBP5 (Homo sapiens); assay: Binding affinity to 15N-labeled FKBP51 (1 to 140 residues) (unknown origin) expressed in Escherichia coli OD2N assessed as induction of chemical shift perturbations at Leu81, Gly82, Gln85, Ile87, Ala89, Trp90, Asp91, Met97, and Glu110 residues by two-dimensional 1H/15N HSQC NMR spectroscopy

| SMILES | Activity [1] | Kd [2] | Activity [3] | Activity [4] |
| --- | --- | --- | --- | --- |
| NC(=O)c1cccnc1 | inactive | – | – | – |
| Oc1ccccn1 | – | 1.3 mM | Active | – |
| c1c[nH]cn1 [IMIDAZOLE] | – | 4.4 mM | Active | – |
| O=C1CNC(=O)N1 | inactive | – | – | – |
| Cc1c[nH]cn1 | – | 2.9 mM | Active | – |
| O=C1CCCCN1 | – | 2.8 mM | – | Active |
